In patent publication US11230541B2, “Heterocyclic compound” (Takeda Pharmaceutical Company Limited, priority 2017, dated 2022):

Biological target: T1, NMDA receptor composed of four subunits including 2 sets of heterodimers of NR1 and NR2B (Homo sapiens, UniProt Q13224)
T1 construct: host or cells: HEK293 (tetracycline-induced expression)
Assay: NR2B Ca2+ influx assay (FLIPR, Fluo-4) in HEK293 cells expressing human GRIN1 and GRIN2B
Type: cell-based
Conditions: HEK293, 10 μM final compound concentration, glutamic acid/glycine-induced Ca2+ influx, read-out: inhibitory rate (10 μM compound concentration)
From the text: To confirm the “antagonistic action on an NMDA receptor containing the NR2B subunit” of the compound of the present invention, human embryonic kidney cell expressing the “NMDA receptor composed of four subunits including 2 sets of heterodimers of NR1 and NR2B”, specifically HEK293 cell expressing human glutamate ionotropic receptor NMDA type subunit 1 (GRIN1) and human glutamate ionotropic receptor NMDA type subunit 2B (GRIN2B), was used and the activation suppressive effect on the receptors was measured.
As an index of the NMDA receptor activation, intracellular calcium ion (Ca^2+) influx caused by the binding of glycine and glutamic acid with NR1 and NR2B, respectively, was used. HEK293 cells were purchased from ChanTest. The cells were cultured in a DMEM/F-12 (COSMO BIO, 10-092-CM) medium added with 10% FBS′(fetal bovine serum, AusGene), 100 units/mL penicillin, 100 μg/mL streptomycin, 500 μg/mL neomycin, 100 μg/mL Zeocin, 5 μg/mL Blasticidin at 37° C., 5% CO2. The cells were detached from flask with trypsin the day before the assay, suspended in a seeding medium (DMEM (Invitrogen, 31053) added with 10% FBS, 100 units/mL penicillin, 100 μg/mL streptomycin) at 8×10^5 cells/mL, seeded by 25 μL per well in a 384-well plate (Falcon, 356663) at 20000 cells/well, and cultured overnight in an incubator. On the day of the assay, tetracycline (Wako Pure Chemical Industries, Ltd., 209-16561) was diluted with the seeding medium at 2 μg/mL, added at […] to the plate seeded with the cells, and cultured for 2 hr in an incubator. Thereafter, the medium was removed, and the cells were washed with 50 μL/well assay buffer (137 mM NaCl, 4 mM KCl, 1.8 mM CaCl2, 10 mM HEPES (pH 7.2), 10 mM Glucose, 0.1% BSA). Then, a loading buffer (assay buffer added with 2.5 uM Fluo-4AM, 2 mM Amaranth, 1 mM Tartrazine) was added at 25 μL/well, and loading was performed in the incubator for 30 min, and at room temperature for 15 min. A solution (25 μL) of the Example compound diluted with the above-mentioned assay buffer at 30 μM (final concentration 10 μM) was added, and the cells were stood for 15 min at room temperature. Using FLIPR (Molecular Devices), 25 μL of an assay buffer containing 30 μM glutamic acid, 30 μM glycine was added, and the fluorescence signal was measured every 3 seconds for 5 min. The inhibitory activity was calculated as a relative activity value (inhibitory rate) that inhibits 100% of the cumulative value of the fluorescence value of a well added with a buffer free of glutamic acid, glycine, relative to the cumulative value of the fluorescence value of each well.

T1 sequence (Q13224 27-1484, other chains not shown): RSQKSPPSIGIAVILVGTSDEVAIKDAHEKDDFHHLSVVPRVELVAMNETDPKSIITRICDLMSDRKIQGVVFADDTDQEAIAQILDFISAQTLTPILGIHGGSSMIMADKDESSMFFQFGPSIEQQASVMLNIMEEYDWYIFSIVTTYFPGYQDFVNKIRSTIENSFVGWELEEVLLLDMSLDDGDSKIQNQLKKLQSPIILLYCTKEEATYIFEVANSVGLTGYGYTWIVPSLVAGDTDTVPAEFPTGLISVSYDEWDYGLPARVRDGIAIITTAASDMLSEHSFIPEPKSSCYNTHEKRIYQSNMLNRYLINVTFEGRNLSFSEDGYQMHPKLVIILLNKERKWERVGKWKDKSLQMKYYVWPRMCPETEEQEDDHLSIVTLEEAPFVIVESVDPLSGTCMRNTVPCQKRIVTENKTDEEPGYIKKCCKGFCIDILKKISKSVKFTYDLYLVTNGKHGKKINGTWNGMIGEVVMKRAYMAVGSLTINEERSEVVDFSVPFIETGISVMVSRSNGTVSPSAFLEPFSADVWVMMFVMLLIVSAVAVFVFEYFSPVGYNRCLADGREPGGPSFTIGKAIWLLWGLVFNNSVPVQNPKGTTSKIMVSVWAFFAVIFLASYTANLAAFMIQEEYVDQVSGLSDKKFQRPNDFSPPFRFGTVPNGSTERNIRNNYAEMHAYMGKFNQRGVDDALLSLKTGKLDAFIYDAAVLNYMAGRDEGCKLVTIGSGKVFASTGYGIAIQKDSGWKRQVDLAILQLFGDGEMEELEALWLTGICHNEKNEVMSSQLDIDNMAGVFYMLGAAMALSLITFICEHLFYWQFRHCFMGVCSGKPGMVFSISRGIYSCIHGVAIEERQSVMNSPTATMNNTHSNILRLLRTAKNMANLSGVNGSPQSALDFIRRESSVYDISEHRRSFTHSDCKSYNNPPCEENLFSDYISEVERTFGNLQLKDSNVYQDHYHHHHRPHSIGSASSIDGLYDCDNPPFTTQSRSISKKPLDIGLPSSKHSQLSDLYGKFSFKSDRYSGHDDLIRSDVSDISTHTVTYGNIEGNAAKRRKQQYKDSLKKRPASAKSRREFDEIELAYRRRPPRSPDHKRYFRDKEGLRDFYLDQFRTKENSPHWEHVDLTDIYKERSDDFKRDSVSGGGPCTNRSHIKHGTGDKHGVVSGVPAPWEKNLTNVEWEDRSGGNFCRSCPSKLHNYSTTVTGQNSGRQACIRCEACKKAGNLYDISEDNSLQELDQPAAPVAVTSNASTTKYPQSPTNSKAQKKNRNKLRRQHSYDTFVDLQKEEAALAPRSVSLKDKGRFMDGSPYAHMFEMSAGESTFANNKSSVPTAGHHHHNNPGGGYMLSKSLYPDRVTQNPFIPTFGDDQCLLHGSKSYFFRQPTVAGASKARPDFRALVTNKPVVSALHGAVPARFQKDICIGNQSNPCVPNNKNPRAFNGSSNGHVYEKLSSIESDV

SMILES	inhibition at 10 µM
O=C(NCc1c(C2CC2)ccc2[nH]ncc12)c1ccc(Cl)s1 [Example 71, 5-chloro-N-((5-cyclopropyl-1H-indazol-4-yl)methyl)thiophene-2-carboxamide]	92%
COc1cc(C(=O)NCc2c(C3CC3)ccc3[nH]ncc23)ccc1F [Example 72, N-((5-cyclopropyl-1H-indazol-4-yl)methyl)-4-fluoro-3-methoxy-benzamide]	89%
Cc1cc(C(=O)NCc2c(C3CC3)ccc3[nH]ncc23)ccc1Cl [Example 73, 4-chloro-N-((5-cyclopropyl-1H-indazol-yl)methyl)-3-methylbenzamide]	94%
Cc1ccc(C(=O)NCc2c(C3CC3)ccc3[nH]ncc23)cc1Cl [Example 74, 3-chloro-N-((5-cyclopropyl-1H-indazol-yl)methyl)-4-methylbenzamide]	93%
Cc1cc(C(=O)NCc2c(C3CC3)ccc3[nH]ncc23)ccc1F [Example 75, N-((5-cyclopropyl-1H-indazol-4-yl)methyl)-4-fluoro-3-methyl-benzamide]	92%
Cc1cc(C(=O)NCc2c(C3CC3)ccc3[nH]ncc23)cc(F)c1F [Example 76, N-((5-cyclopropyl-1H-indazol-4-yl)methyl)-3,4-difluoro-5-methyl-benzamide]	93%
O=C(NCc1c(C2CC2)ccc2[nH]ncc12)c1ccc(F)c(Cl)c1 [Example 77, 3-chloro-N-((5-cyclopropyl-1H-indazol-4-yl)methyl)-4-fluorobenzamide]	92%
O=C(NCc1c(C2CC2)ccc2[nH]ncc12)c1ccc(Cl)c(F)c1 [Example 78, 4-chloro-N-((5-cyclopropyl-1H-indazol-yl)methyl)-3-fluorobenzamide]	93%
O=C(NCc1c(C2CC2)ccc2[nH]ncc12)c1ccc(C(F)(F)F)s1 [Example 82, N-((5-cyclopropyl-1H-indazol-4-yl)methyl)-5-(trifluoromethyl)-thiophene-2-carboxamide]	94%
Cc1ccc(C(=O)NCc2c(C3CC3)ccc3[nH]ncc23)cc1C(F)(F)F [Example 84, N-((5-cyclopropyl-1H-indazol-4-yl)methyl)-4-methyl-3-(trifluoro-methyl)benzamide]	91%
O=C(NCc1c(C2CC2)ccc2[nH]ncc12)c1ccc(F)c(C(F)(F)F)c1 [Example 85, N-((5-cyclopropyl-1H-indazol-4-yl)methyl)-4-fluoro-3-(trifluoromethyl)-benzamide]	93%
O=C(NCc1c(C2CC2)ccc2[nH]ncc12)c1cc(Cl)c(F)c(Cl)c1 [Example 86, 3,5-dichloro-N-((5-cyclopropyl-1H-indazol-4-yl)methyl)-4-fluorobenzamide]	94%
O=C(NCc1c(C2CC2)ccc2[nH]ncc12)c1cc(F)c(Cl)c(Cl)c1 [Example 87, 3,4-dichloro-N-((5-cyclopropyl-1H-indazol-4-yl)methyl)-5-fluorobenzamide]	94%
O=C(NCc1c(C2CC2)ccc2[nH]ncc12)c1ccc(OC(F)(F)F)c(F)c1 [Example 88, N-((5-cyclopropyl-1H-indazol-4-yl)methyl)-3-fluoro-4-(trifluoro-methoxy)benzamide]	93%
O=C(NCc1c(C2CC2)ccc2[nH]ncc12)c1cc(F)c(Cl)c(F)c1 [Example 90, 4-chloro-N-((5-cyclo-propyl-1H-indazol-4-yl)methyl)-3,5-difluorobenzamide]	94%
O=C(NCc1c(C2CC2)ccc2[nH]ncc12)c1ccc(C(F)(F)F)c(F)c1 [Example 92, N-((5-cyclopropyl-1H-indazol-4-yl)methyl)-3-fluoro-4-(trifluoro-methyl)benzamide]	93%
COc1ncc(C(=O)NCc2c(C3CC3)ccc3[nH]ncc23)cc1F [Example 96, N-((5-cyclopropyl-1H-indazol-4-yl)methyl)-fluoro-6-methoxy-nicotinamide]	93%
Cc1c(F)cc(C(=O)NCc2c(C3CC3)ccc3[nH]ncc23)cc1F [Example 97, N-((5-cyclopropyl-1H-indazol-4-yl)methyl)-3,5-difluoro-4-methylbenzamide]	94%
O=C(NCc1c(C2CC2)ccc2[nH]ncc12)c1ccc(C(F)F)cc1 [Example 98, N-((5-cyclopropyl-1H-indazol-4-yl)methyl)-4-(difluoromethyl)-benzamide]	90%
Cc1ccc(C(=O)NCc2c(C3CC3)ccc3[nH]ncc23)cc1 [Example 99, N-((5-cyclopropyl-1H-indazol-4-yl)methyl)-methylbenzamide]	91%
O=C(NCc1c(C2CC2)ccc2[nH]ncc12)c1ccc(OC(F)F)cc1 [Example 100, N-((5-cyclopropyl-1H-indazol-4-yl)methyl)-4-(difluoromethoxy)-benzamide]	91%
COc1ncc(C(=O)NCc2c(C3CC3)ccc3[nH]ncc23)cc1Cl [Example 103, 5-chloro-N-((5-cyclopropyl-1H-indazol-yl)methyl)-6-methoxynicotinamide]	93%
CCOc1ncc(C(=O)NCc2c(C3CC3)ccc3[nH]ncc23)cc1Cl [Example 104, 5-chloro-N-((5-cyclopropyl-1H-indazol-4-yl)methyl)-6-ethoxynicotinamide]	90%
O=C(NCc1c(C2CC2)ccc2[nH]ncc12)c1cnc(OC(F)F)c(F)c1 [Example 105, N-((5-cyclopropyl-1H-indazol-4-yl)methyl)-6-(difluoromethoxy)-5-fluoronicotinamide]	93%
O=C(NCc1c(C2CC2)ccc2[nH]ncc12)c1ccc(OC(F)(F)F)nc1 [Example 106, N-((5-cyclopropyl-1H-indazol-4-yl)-methyl)-6-(trifluoro-methoxy)nicotinamide]	93%

More lines, now with the values ahead:

inhibition at 10 µM	SMILES
92%	O=C(NCc1c(C2CC2)ccc2[nH]ncc12)c1cc(F)c(F)c(F)c1 [Example 79, N-((5-cyclopropyl-1H-indazol-4-yl)methyl)-3,4,5-trifluoro-benzamide]
93%	COc1ccc(C(=O)NCc2c(C3CC3)ccc3[nH]ncc23)cc1Cl [Example 80, 3-chloro-N-((5-cyclo-propyl-1H-indazol-4-yl)methyl)-4-methoxybenzamide]
82%	COc1cc(C(=O)NCc2c(C3CC3)ccc3[nH]ncc23)ccc1Cl [Example 81, 4-chloro-N-((5-cyclopropyl-1H-indazol-4-yl)methyl)-3-methoxybenzamide]
93%	O=C(NCc1c(C2CC2)ccc2[nH]ncc12)c1cc(Cl)c(Cl)s1 [Example 83, 4,5-dichloro-N-((5-cyclopropyl-1H-indazol-4-yl)methyl)thiophene-2-carboxamide]
91%	O=C(NCc1c(C2CC2)ccc2[nH]ncc12)c1ccc(C(F)(F)F)c(Cl)c1 [Example 89, 3-chloro-N-((5-cyclo-propyl-1H-indazol-4-yl)methyl)-4-(trifluoro-methyl)benzamide]
94%	O=C(NCc1c(C2CC2)ccc2[nH]ncc12)c1cc(F)c(C(F)(F)F)c(F)c1 [Example 91, N-((5-cyclopropyl-1H-indazol-4-yl)methyl)-3,5-difluoro-4-(trifluoro-methyl)benzamide]
94%	Cc1ccc(C(=O)NCc2c(C3CC3)ccc3[nH]ncc23)cc1F [Example 93, N-((5-cyclopropyl-1H-indazol-4-yl)methyl)-3-fluoro-4-methyl-benzamide]
93%	COc1ccc(C(=O)NCc2c(C3CC3)ccc3[nH]ncc23)cc1F [Example 94, N-((5-cyclopropyl-1H-indazol-4-yl)methyl)-3-fluoro-4-methoxy-benzamide]
95%	O=C(NCc1c(C2CC2)ccc2[nH]ncc12)c1cc(F)c(F)c(Cl)c1 [Example 95, 3-chloro-N-((5-cyclopropyl-1H-indazol-4-yl)methyl)-4,5-difluorobenzamide]
92%	COc1ccc(C(=O)NCc2c(C3CC3)ccc3[nH]ncc23)cc1 [Example 101, N-((5-cyclopropyl-1H-indazol-4-yl)methyl)-methoxybenzamide]
92%	O=C(NCc1c(C2CC2)ccc2[nH]ncc12)c1ccc(Cl)cc1 [Example 102, 4-chloro-N-((5-cyclopropyl-1H-indazol-yl)methyl)benzamide]
